Key:
Type in all cases: cell-based
Details in all cases: 1.0 μg/ml
[1] = tested on: spleen cell suspension; assay: IF induction in vitro, rabbit (Table 6)
Protocol: (§1) A spleen cell suspension (10^7 cells/ml) was prepared by the method of hereinafter described Experiment 1 using an Eagle MEM medium (commercial product of Nissui Seiyaku K.K., Tokyo) containing a 10% calf serum (which was replaced by a 10% fetal cattle serum in the cases of human tests), each of which fraction (1 ml) was added with a given concetration of the sample and incubated overnight at a given temperature. The cultured liquor was centrifuged to separate a supernatant which was used for determining the IF activity induced. In the case of humans, the fresh spleen was collected from a person (adult deceased by external wounds) and used for the preparation of a leucocytes suspension on each occasion, and also blood was collected from the vein at the upper arm of a person (adult), from which the serum was separated to use for the preparation of a serum suspension on each occasion.
(§2) The IF activities were determined by using the cells shown in Table 5 in a similar manner to that hereinafter described in Experiment 1.

[2] = tested on: spleen cell suspension; assay: IF induction in vitro, mouse (Table 6)
Protocol: as §1, §2

[3] = tested on: Human (spleen); assay: IF induction in vitro, human spleen (Table 6)
Protocol: as §1, §2

Substance: Poly I:C
- IF activity in vitro (Control) [1]: 190
- IF activity in vitro (Control) [2]: 80
- IF activity in vitro (Control) [3]: < 10

— patent publication US4456597A
